According to ChEMBL document CHEMBL1138817, “Synthesis and cytotoxic activity of 3-O-acyl/3-hydrazine /2-bromo/20,29-dibromo betulinic acid derivatives” (2004):
In brackets after ≈: the same amount, converted by molar mass.

What was measured:
Format in all cases: functional
U-937 = assay: Cytotoxic activity against human U937 cell line was measured after 72 hr using MTT assay; conditions: for EC50: Homo sapiens, U-937, 72 h, read-out: ED50 (the source's name)
L132 = assay: Cytotoxic activity against human L132 cell line was measured after 72 hr using MTT assay; conditions: L132, 72 h, read-out: ED50 (the source's name)
BRISTOL8 = assay: Cytotoxic activity against human BRISTOL8 cell line was measured after 72 hr using MTT assay; conditions: for EC50: Homo sapiens, BRISTOL8, 72 h, read-out: ED50 (the source's name)
DU-145 = assay: Cytotoxic activity against human DU145 cell line was measured after 72 hr using MTT assay; conditions: for EC50: Homo sapiens, DU-145, 72 h, read-out: ED50 (the source's name)
A549 = assay: Cytotoxic activity against human A549 cell line was measured after 72 hr using MTT assay; conditions: A549, 72 h, read-out: ED50 (the source's name)
MOLT-4 = assay: Cytotoxic activity against human MOLT-4 cell line was measured after 72 hr using MTT assay; conditions: for EC50: Homo sapiens, MOLT-4, 72 h, read-out: ED50 (the source's name)
CCRF-CEM = assay: Cytotoxic activity against human CEM.CM3 cell line was measured after 72 hr using MTT assay; conditions: for EC50: Homo sapiens, CCRF-CEM, 72 h, read-out: ED50 (the source's name)
Jurkat = assay: Cytotoxic activity against human JurkatE6.1 cell line was measured after 72 h using MTT assay; conditions: for EC50: Homo sapiens, Jurkat, 72 h, read-out: ED50 (the source's name)
PA-1 = assay: Cytotoxic activity against human PA-1 cell line was measured after 72 hr using MTT assay; conditions: for EC50: Homo sapiens, PA-1, 72 h, read-out: ED50 (the source's name)

SMILES	EC50 (U-937) [µg/mL]	EC50 (L132) [µg/mL]	EC50 (BRISTOL8) [µg/mL]	EC50 (DU-145) [µg/mL]	EC50 (A549) [µg/mL]	EC50 (MOLT-4) [µg/mL]	EC50 (CCRF-CEM) [µg/mL]	EC50 (Jurkat) [µg/mL]	EC50 (PA-1) [µg/mL]	ED50 (DU-145) [µg/mL]	ED50 (Jurkat) [µg/mL]	ED50 (U-937) [µg/mL]	ED50 (BRISTOL8) [µg/mL]	ED50 (MOLT-4) [µg/mL]	ED50 (CCRF-CEM) [µg/mL]	ED50 (PA-1) [µg/mL]
CC(C)[C@@H]1CC[C@]2(C(=O)O)CC[C@]3(C)C(CCC4[C@@]5(C)CC/C(=N\Nc6ccccc6)C(C)(C)C5CC[C@]43C)C12 (stereo partly specified)	2.2 (≈ 4.02 µM)	7.4 (≈ 13.5 µM)	3.7 (≈ 6.77 µM)	0.6 (≈ 1.1 µM)	> 10	1.4 (≈ 2.56 µM)	2.9 (≈ 5.3 µM)	6.3 (≈ 11.5 µM)	0.4 (≈ 0.731 µM)	–	–	–	–	–	–	–
CC(C)[C@@H]1CC[C@]2(C(=O)O)CC[C@]3(C)C(CCC4[C@@]5(C)CC/C(=N\O)C(C)(C)C5CC[C@]43C)C12 (stereo partly specified)	2.4 (≈ 5.09 µM)	1.5 (≈ 3.18 µM)	1.6 (≈ 3.39 µM)	1.1 (≈ 2.33 µM)	> 1.8	2.1 (≈ 4.45 µM)	2.6 (≈ 5.51 µM)	1.8 (≈ 3.82 µM)	0.7 (≈ 1.48 µM)	–	–	–	–	–	–	–
C=C(C)[C@@H]1CC[C@]2(C(=O)O)CC[C@]3(C)C(CCC4[C@@]5(C)CC[C@H](OC(=O)C(C)C(=O)OC)C(C)(C)C5CC[C@]43C)C12 (stereo partly specified)	1.1 (≈ 1.93 µM)	> 10	1.7 (≈ 2.98 µM)	1.6 (≈ 2.8 µM)	> 10	1.2 (≈ 2.1 µM)	1.6 (≈ 2.8 µM)	0.9 (≈ 1.58 µM)	3.6 (≈ 6.31 µM)	–	–	–	–	–	–	–
C=C(C)[C@@H]1CC[C@]2(C(=O)O)CC[C@]3(C)C(CCC4[C@@]5(C)CC[C@H](OC(C)=O)C(C)(C)C5CC[C@]43C)C12 (stereo partly specified)	1.6 (≈ 3.21 µM)	> 10	4.8 (≈ 9.62 µM)	2.6 (≈ 5.21 µM)	> 10	3.1 (≈ 6.22 µM)	–	1.8 (≈ 3.61 µM)	4.1 (≈ 8.22 µM)	–	–	–	–	–	–	–
C=C(C)[C@@H]1CC[C@]2(C(=O)OCC(=O)O)CC[C@]3(C)C(CCC4[C@@]5(C)CC[C@H](O)C(C)(C)C5CC[C@]43C)C12 (stereo partly specified)	> 10	> 10	–	> 10	> 10	3.1 (≈ 6.02 µM)	> 10	> 10	1.3 (≈ 2.53 µM)	–	–	–	–	–	–	–
C=C(C)[C@@H]1CC[C@]2(C(=O)O)CC[C@]3(C)C(CCC4[C@@]5(C)CC[C@H](OC(=O)CC)C(C)(C)C5CC[C@]43C)C12 (stereo partly specified)	6.8 (≈ 13.3 µM)	> 10	2.1 (≈ 4.1 µM)	4.2 (≈ 8.19 µM)	> 10	3.3 (≈ 6.44 µM)	5.5 (≈ 10.7 µM)	2.1 (≈ 4.1 µM)	3.7 (≈ 7.22 µM)	–	–	–	–	–	–	–
CC(C)[C@@H]1CC[C@]2(C(=O)O)CC[C@]3(C)C(CCC4[C@@]5(C)CC(Br)C(=O)C(C)(C)C5CC[C@]43C)C12 (stereo partly specified)	1.3 (≈ 2.43 µM)	> 10	2.9 (≈ 5.41 µM)	3 (≈ 5.6 µM)	> 10	0.4 (≈ 0.747 µM)	0.3 (≈ 0.56 µM)	0.7 (≈ 1.31 µM)	0.5 (≈ 0.934 µM)	–	–	–	–	–	–	–
COC(=O)CCOC(=O)[C@]12CC[C@@H](C(C)C)C1C1CCC3[C@@]4(C)CC(Br)C(=O)C(C)(C)C4CC[C@@]3(C)[C@]1(C)CC2 (stereo partly specified)	1.2 (≈ 1.93 µM)	> 10	2.3 (≈ 3.7 µM)	6.6 (≈ 10.6 µM)	> 10	1.2 (≈ 1.93 µM)	1.9 (≈ 3.06 µM)	1.9 (≈ 3.06 µM)	4.8 (≈ 7.72 µM)	–	–	–	–	–	–	–
CC1(C)C(=O)C(Br)C[C@@]2(C)C1CC[C@]1(C)C2CCC2C3[C@H](C(C)(Br)CBr)CC[C@]3(C(=O)O)CC[C@]21C (stereo partly specified)	2.1 (≈ 3.03 µM)	> 10	3.8 (≈ 5.48 µM)	3.6 (≈ 5.19 µM)	> 10	5.9 (≈ 8.51 µM)	2.8 (≈ 4.04 µM)	2.1 (≈ 3.03 µM)	5.1 (≈ 7.36 µM)	–	–	–	–	–	–	–
C=C(C)[C@@H]1CC[C@]2(C(=O)O)CC[C@]3(C)C(CCC4[C@@]5(C)CC[C@H](OC(=O)C(C)(C)C)C(C)(C)C5CC[C@]43C)C12 (stereo partly specified)	> 10	> 10	> 10	1 (≈ 1.85 µM)	> 10	2.4 (≈ 4.44 µM)	> 10	> 10	0.7 (≈ 1.29 µM)	–	–	–	–	–	–	–
CC(=O)O[C@H]1C(Br)C[C@@]2(C)C(CC[C@]3(C)C2CCC2C4[C@H](C(C)(Br)CBr)CC[C@]4(C(=O)O)CC[C@]23C)C1(C)C (stereo partly specified)	0.3 (≈ 0.407 µM)	> 10	1.4 (≈ 1.9 µM)	2.5 (≈ 3.39 µM)	> 10	2.8 (≈ 3.8 µM)	2.7 (≈ 3.66 µM)	6.9 (≈ 9.36 µM)	2.4 (≈ 3.25 µM)	–	–	–	–	–	–	–
COC(=O)COC(=O)[C@]12CC[C@@H](C(C)C)C1C1CCC3[C@@]4(C)CC[C@H](O)C(C)(C)C4CC[C@@]3(C)[C@]1(C)CC2 (stereo partly specified)	> 10	> 10	3.4 (≈ 6.41 µM)	> 10	> 10	2.8 (≈ 5.28 µM)	2.5 (≈ 4.71 µM)	5.5 (≈ 10.4 µM)	0.5 (≈ 0.942 µM)	–	–	–	–	–	–	–
C=C(C)[C@@H]1CC[C@]2(C(=O)O)CC[C@]3(C)C(CCC4[C@@]5(C)CC/C(=N\Nc6ccccc6)C(C)(C)C5CC[C@]43C)C12 (stereo partly specified)	2.4 (≈ 4.41 µM)	4.3 (≈ 7.89 µM)	3.4 (≈ 6.24 µM)	2.4 (≈ 4.41 µM)	> 10	3.4 (≈ 6.24 µM)	3.1 (≈ 5.69 µM)	2.6 (≈ 4.77 µM)	5.3 (≈ 9.73 µM)	–	–	–	–	–	–	–
C=C(C)[C@@H]1CC[C@]2(C(=O)O)CC[C@]3(C)C(CCC4[C@@]5(C)CC/C(=N\OS(=O)(=O)c6ccc(C)cc6)C(C)(C)C5CC[C@]43C)C12 (stereo partly specified)	4.8 (≈ 7.69 µM)	> 10	3.3 (≈ 5.29 µM)	2.8 (≈ 4.49 µM)	> 10	2.7 (≈ 4.33 µM)	1.5 (≈ 2.4 µM)	4.9 (≈ 7.85 µM)	1.8 (≈ 2.89 µM)	–	–	–	–	–	–	–
C=C(C)[C@@H]1CC[C@]2(C(=O)CC(=O)OC)CC[C@]3(C)C(CCC4[C@@]5(C)CC[C@H](O)C(C)(C)C5CC[C@]43C)C12 (stereo partly specified)	> 10	> 10	4.5 (≈ 8.78 µM)	2.9 (≈ 5.66 µM)	> 10	3.9 (≈ 7.61 µM)	6.4 (≈ 12.5 µM)	7.4 (≈ 14.4 µM)	7.1 (≈ 13.8 µM)	–	–	–	–	–	–	–
C=C(C)[C@@H]1CC[C@]2(C(=O)OCC(=O)OC)CC[C@]3(C)C(CCC4[C@@]5(C)CCC(=N)C(C)(C)C5CC[C@]43C)C12 (stereo partly specified)	1.7 (≈ 3.23 µM)	> 10	1.4 (≈ 2.66 µM)	5.5 (≈ 10.5 µM)	> 10	1.7 (≈ 3.23 µM)	1.4 (≈ 2.66 µM)	0.5 (≈ 0.951 µM)	6.5 (≈ 12.4 µM)	–	–	–	–	–	–	–
COC(=O)C(C)C(=O)O[C@H]1CC[C@@]2(C)C(CC[C@]3(C)C2CCC2C4[C@H](C(C)C)CC[C@]4(C(=O)O)CC[C@]23C)C1(C)C (stereo partly specified)	4 (≈ 6.98 µM)	7.7 (≈ 13.4 µM)	2.1 (≈ 3.67 µM)	1 (≈ 1.75 µM)	2.1 (≈ 3.67 µM)	2.8 (≈ 4.89 µM)	3.1 (≈ 5.41 µM)	3.8 (≈ 6.63 µM)	1.3 (≈ 2.27 µM)	–	–	–	–	–	–	–
CC(=O)O[C@H]1CC[C@@]2(C)C(CC[C@]3(C)C2CCC2C4[C@H](C(C)C)CC[C@]4(C(=O)O)CC[C@]23C)C1(C)C (stereo partly specified)	1.8 (≈ 3.59 µM)	2.9 (≈ 5.79 µM)	3.4 (≈ 6.79 µM)	0.9 (≈ 1.8 µM)	2.3 (≈ 4.59 µM)	1.1 (≈ 2.2 µM)	1 (≈ 2 µM)	1.6 (≈ 3.2 µM)	0.8 (≈ 1.6 µM)	–	–	–	–	–	–	–
COC(=O)COC(=O)[C@]12CC[C@@H](C(C)C)C1C1CCC3[C@@]4(C)CC(Br)C(=O)C(C)(C)C4CC[C@@]3(C)[C@]1(C)CC2 (stereo partly specified)	1.1 (≈ 1.81 µM)	> 10	3.4 (≈ 5.6 µM)	6.8 (≈ 11.2 µM)	> 10	1.7 (≈ 2.8 µM)	2.1 (≈ 3.46 µM)	2.8 (≈ 4.61 µM)	3.2 (≈ 5.27 µM)	–	–	–	–	–	–	–
COC(=O)COC(=O)[C@]12CC[C@@H](C(C)(Br)CBr)C1C1CCC3[C@@]4(C)CC(Br)C(=O)C(C)(C)C4CC[C@@]3(C)[C@]1(C)CC2 (stereo partly specified)	0.7 (≈ 0.914 µM)	> 10	1.9 (≈ 2.48 µM)	4.5 (≈ 5.88 µM)	> 10	1.3 (≈ 1.7 µM)	1.2 (≈ 1.57 µM)	1.1 (≈ 1.44 µM)	2.5 (≈ 3.27 µM)	–	–	–	–	–	–	–
CC(Br)(CBr)[C@@H]1CC[C@]2(C(=O)O)CC[C@]3(C)C(CCC4[C@@]5(C)CC(Br)[C@H](O)C(C)(C)C5CC[C@]43C)C12 (stereo partly specified)	> 10	> 10	7 (≈ 10.1 µM)	> 10	> 10	3.6 (≈ 5.18 µM)	6.8 (≈ 9.78 µM)	> 10	6 (≈ 8.63 µM)	–	–	–	–	–	–	–
C=C(C)[C@@H]1CC[C@]2(C(=O)OCC(=O)OC)CC[C@]3(C)C(CCC4[C@@]5(C)CC[C@H](O)C(C)(C)C5CC[C@]43C)C12 (stereo in doubt; 3)	> 10	> 10	5.3 (≈ 10 µM)	–	> 10	4 (≈ 7.56 µM)	3.2 (≈ 6.05 µM)	–	5.9 (≈ 11.2 µM)	>10	1.4 (≈ 2.65 µM)	–	–	–	–	–
C=C(C)[C@@H]1CC[C@]2(C(=O)OCC(=O)OC)CC[C@]3(C)C(CCC4[C@@]5(C)CC[C@H](O)C(C)(C)C5CC[C@]43C)C12 (stereo in doubt; 4)	–	–	–	–	–	–	–	–	–	1.9 (≈ 3.59 µM)	3.1 (≈ 5.86 µM)	5.4 (≈ 10.2 µM)	7.4 (≈ 14 µM)	2.9 (≈ 5.48 µM)	5.9 (≈ 11.2 µM)	3.1 (≈ 5.86 µM)
C=C(C)[C@@H]1CC[C@]2(C(=O)O)CC[C@]3(C)[C@H](CC[C@@H]4[C@@]5(C)CC[C@H](O)C(C)(C)[C@@H]5CC[C@]43C)[C@@H]12 [BETULINIC ACID]	0.69 (≈ 1.51 µM)	1.3 (≈ 2.85 µM)	0.84 (≈ 1.84 µM)	1.13 (≈ 2.47 µM)	> 10	1.23 (≈ 2.69 µM)	0.98 (≈ 2.15 µM)	0.65 (≈ 1.42 µM)	> 10	–	–	–	–	–	–	–
C=C(C)[C@@H]1CC[C@]2(C(=O)O)CC[C@]3(C)[C@H](CC[C@@H]4[C@@]5(C)CCC(=O)C(C)(C)[C@@H]5CC[C@]43C)[C@@H]12 [BETUNOLIC ACID]	2.8 (≈ 6.16 µM)	> 10	2.6 (≈ 5.72 µM)	3.1 (≈ 6.82 µM)	> 10	1.2 (≈ 2.64 µM)	4.4 (≈ 9.68 µM)	0.4 (≈ 0.88 µM)	1.2 (≈ 2.64 µM)	–	–	–	–	–	–	–
